Results published in ChEMBL document CHEMBL6115010, “Targeting glioma with heteroaromatic alkaloids: A review of potential therapeutics” (Bioorg Med Chem, 2025).
Values after ≈ are worked out from the molar mass of the structure shown. Blank lines part the entries; values can stand above or below the compound they belong to.

Experiments:
[1] = tested on: U-87 MG; assay: Cytotoxicity against human U-87 MG cells assessed as reduction in cell viability incubated for 72 hrs by neutral red uptake assay; format: functional, cell-based, U-87MG ATCC
[2] = tested on: U-87 MG; assay: Cytotoxicity against human U-87 MG cells assessed as reduction in cell viability in presence of Jerantinine B incubated for 72 hrs by neutral red uptake assay; format: functional, cell-based, U-87MG ATCC
[3] = tested on: U-87 MG; assay: Synergistic antiproliferative activity against human U-87 MG cells assessed as combination index at 10 uM incubated for 48 hrs in presence of 1.5 microg/ml Delta-Tocotrienol; format: functional, U-87MG ATCC
[4] = tested on: MRC5; assay: Cytotoxicity against human MRC5 cells assessed as reduction in cell viability incubated for 72 hrs by neutral red uptake assay; format: functional, cell-based; settings: MRC5, 72 h
[5] = tested on: U-87 MG; assay: Cytotoxicity against human U-87 MG cells assessed as reduction in cell viability in presence of Delta-Tocotrienol incubated for 72 hrs by neutral red uptake assay; format: functional, cell-based, U-87MG ATCC
[6] = tested on: C6; assay: Cytotoxicity against rat C6 cells assessed as reduction in cell viability incubated for 48 hrs by trypan blue dye based assay; format: functional; settings: C6, 48 h
[7] = tested on: C6; assay: Antitumor activity against rat C6 cells implanted in athymic nude mouse model assessed as tumor growth inhibition at 30 mg/kg, ip administered once daily for 12 days and measured after 34 days relative to control; format: functional; settings: C6, 816 h, time 34 day, read-out: TGI
[8] = tested on: SNB-19; assay: Antiproliferative activity against human SNB-19 cells assessed as reduction in cell viability measured for 96 hrs by MTT assay; format: functional, cell-based; settings: SNB-19, 96 h
[9] = tested on: C6; assay: Antitumor activity against rat C6 cells implanted in athymic nude mouse model assessed as tumor growth inhibition at 30 mg/kg, sc administered once daily for 12 days and measured after 34 days relative to control; format: functional; settings: C6, 288 h, time 12 day, read-out: TGI
[10] = Antiproliferative activity against mouse GL26 cells assessed as reduction in cell viability measured for 96 hrs by MTT assay; format: functional, cell-based; settings: GL26, 96 h
[11] = tested on: C6; assay: Antiproliferative activity against rat C6 cells assessed as reduction in cell viability measured for 96 hrs by MTT assay; format: functional, cell-based; settings: C6, 96 h
[12] = tested on: 9L; assay: Antiproliferative activity against rat 9L cells assessed as reduction in cell viability measured for 96 hrs by MTT assay; format: functional, cell-based
[13] = tested on: U-87 MG; assay: Antitumor activity against human U-87MG cells xenografted in athymic nude mouse model assessed as tumor growth inhibition at 30 mg/kg, ip administered once daily for 12 days relative to control; format: functional, U-87MG ATCC; settings: 288 h, time 12 day, read-out: TGI
[14] = tested on: U-87 MG; assay: Antiproliferative activity against human U-87 MG cells assessed as reduction in cell viability measured for 96 hrs by MTT assay; format: functional, cell-based, U-87MG ATCC
[15] = tested on: U-251; assay: Growth inhibition of human U-251MG cells measured for 48 hrs by SRB assay; format: functional
[16] = Cytotoxicity against human U373 MG cells by MTT assay; format: functional, cell-based, U-373MG ATCC
[17] = tested on: Hs 683; assay: Cytotoxicity against human Hs 683 cells by MTT assay; format: functional, cell-based
[18] = Antitumor activity against rat C6/ACNUcells implanted in Wistar rat assessed as increase in life span at 1 mg/kg relative to control; format: functional, C6/ACNU
[19] = Cytotoxicity against rat ACNU-resistant C6 cell assessed as reduction in cell growth in presence of reserpine at 20 uM incubated for 24 hrs by MTT assay; format: functional, cell-based
[20] = Cytotoxicity against rat ACNU-resistant C6/ACNU cells assessed as reduction in cell growth in presence of reserpine at 10 uM incubated for 24 hrs by MTT assay; format: functional, cell-based
[21] = Cytotoxicity against rat ACNU-resistant C6/ACNU cells assessed as reduction in cell growth in presence of reserpine at 20 uM incubated for 24 hrs by MTT assay; format: functional, cell-based
[22] = Cytotoxicity against rat ACNU-resistant C6/ACNU cells assessed as reduction in cell growth incubated for 24 hrs by MTT assay; format: functional, cell-based
[23] = Cytotoxicity against rat ACNU-resistant C6 cell assessed as reduction in cell growth in presence of reserpine at 10 uM incubated for 24 hrs by MTT assay; format: functional, cell-based
[24] = Cytotoxicity against rat ACNU-resistant C6 cells assessed as reduction in cell growth incubated for 24 hrs by MTT assay; format: functional, cell-based
[25] = Antiproliferative activity against human GSC#1 cells assessed as reduction in cell growth incubated for 72 hrs by MTS assay; format: functional, cell-based; settings: GSC#1, 72 h
[26] = tested on: T98G; assay: Antiproliferative activity against human T98G cells assessed as reduction in cell growth incubated for 72 hrs by MTS assay; format: functional, cell-based
[27] = tested on: U-87 MG; assay: Antiproliferative activity against human U-87 MG cells assessed as reduction in cell growth incubated for 72 hrs by MTS assay; format: functional, cell-based, U-87MG ATCC
[28] = tested on: U-87 MG; assay: Antiproliferative activity against human U-87 MG cells assessed as inhibition of cell growth measured for 72 hrs; format: functional, cell-based, U-87MG ATCC
[29] = tested on: T98G; assay: Antiproliferative activity against human T98G cells assessed as inhibition of cell growth measured for 72 hrs; format: functional, cell-based
[30] = tested on: U-251; assay: Antiproliferative activity against human U-251MG cells assessed as inhibition of cell growth measured for 72 hrs; format: functional, cell-based; settings: U-251, 72 h
[31] = tested on: A 172; assay: Antiproliferative activity against human A-172 cells assessed as inhibition of cell growth measured for 72 hrs; format: functional, cell-based; settings: A 172, 72 h
[32] = Antiproliferative activity against human D-54MG cells assessed as inhibition of cell growth measured for 72 hrs; format: functional, cell-based; settings: D54MG
[33] = tested on: U-251; assay: Antiproliferative activity against human U-251MG cells assessed as reduction in cell growth measured at 10 uM for 48 hrs by MTT assay relative to control; format: functional; set-up: scale not given: the % may be the effect or the level left
[34] = Antiproliferative activity against human U373 MG cells assessed as reduction in cell growth measured for 72 hrs by MTT assay; format: functional, cell-based, U-373MG ATCC
[35] = tested on: U-251; assay: Cytotoxicity against human U-251MG cells assessed as reduction in cell viability measured after 24 hrs by MTT assay; format: functional, cell-based; settings: U-251, 24 h
[36] = Toxicity in human U-87MG cells xenografted in nude mouse assessed as lethal dose at 10 mg/kg, ip administered once daily for 20 days relative to control; format: organism-based; settings: in vivo, time 20 day
[37] = tested on: U-118-MG; assay: Cytotoxicity against human U-118-MG cells assessed as reduction in cell viability measured after 24 hrs by MTT assay; format: functional, cell-based
[38] = tested on: A 172; assay: Cytotoxicity against human A-172 cells assessed as reduction in cell viability measured after 24 hrs by MTT assay; format: functional, cell-based; settings: A 172, 24 h
[39] = tested on: U-87 MG; assay: Cytotoxicity against human U-87 MG cells assessed as reduction in cell viability measured after 24 hrs by MTT assay; format: functional, cell-based, U-87MG ATCC
[40] = tested on: U-87 MG; assay: Antitumor activity against human U-87 MG cells implanted with chicken egg assessed as reduction in tumor weight at 10 uM measured after 7 days by microscopic analysis (reference value: 27.87+/-4.7 mg); format: functional, U-87MG ATCC; settings: time 7 day
[41] = tested on: T98G; assay: Cytotoxicity against human T98G cells assessed as inhibition of cell growth measured for 72 hrs by MTT assay; format: functional, cell-based
[42] = tested on: U-251; assay: Antiproliferative activity against human U-251MG cells assessed as inhibition of cell growth measured for 72 hrs by MTT assay; format: functional, cell-based; settings: U-251, 72 h
[43] = tested on: T98G; assay: Antiproliferative activity against human T98G cells assessed as inhibition of cell growth measured for 72 hrs by MTT assay; format: functional, cell-based
[44] = tested on: U-251; assay: Cytotoxicity against human U-251MG cells assessed as inhibition of cell growth measured for 72 hrs by MTT assay; format: functional, cell-based; settings: U-251, 72 h
[45] = tested on: SH-SY5Y; assay: Cytotoxicity against human SH-SY5Y cells assessed as reduction in cell viability incubated for 24 hrs by MTT assay; format: functional, cell-based
[46] = tested on: U-87 MG; assay: Cytotoxicity against human U-87 MG cells assessed as reduction in cell viability at 400 uM measured for 24 hrs relative to control; format: functional, U-87MG ATCC
[47] = tested on: T98G; assay: Cytotoxicity against human T98G cells assessed as reduction in cell viability at 400 uM measured for 24 hrs relative to control; format: functional
[48] = tested on: U-251; assay: Cytotoxicity against human U-251MG cells assessed as cell growth inhibition incubated for 24 hrs by MTT assay; format: functional, cell-based; settings: U-251, 24 h
[49] = tested on: SK-N-SH; assay: Induction of apoptosis in human SK-N-SH cells assessed as early apoptotic cells at 200 micromol/L incubated for 48 hrs by Annexin V-FITC/Propidium Iodide staining based flow cytometry analysis (reference value: 10.3 %); format: functional; settings: dose 200 µmol/L, at 200 µM
[50] = tested on: SK-N-SH; assay: Induction of apoptosis in human SK-N-SH cells assessed as early apoptotic cells at 100 micromol/L incubated for 48 hrs by Annexin V-FITC/Propidium Iodide staining based flow cytometry analysis (reference value: 10.3 %); format: functional; settings: dose 100 µmol/L, at 100 µM
[51] = tested on: U-87 MG; assay: Antiproliferative activity against human U-87-MG cells; format: functional, cell-based, U-87MG ATCC
[52] = tested on: U-251; assay: Antiproliferative activity against human U-251MG cells; format: functional, cell-based
[53] = tested on: U-251; assay: Antiproliferative activity against human U-251MG cells assessed as reduction in cell growth measured for 48 hrs by MTT assay; format: functional, cell-based; settings: U-251, 48 h

Compound: CC[C@@]12CC(C(=O)OC)=C3Nc4cc(OC)c(O)cc4[C@@]34CCN(C[C@@H]3O[C@@H]31)[C@@H]24 [JERANTININE B]
IC50 [1]: 0.74 µg/mL (≈ 1.86 µM)
IC50 [2]: 0.74 µg/mL
CI [3]: 0.85
IC50 [4]: 2.83 µg/mL (≈ 7.1 µM)
IC50 [5]: 0.19 µg/mL

Compound: COc1cc(C2(O)C(=O)N=C(N)N2C)ccc1O (stereo not drawn)
IC50 [6]: 155 µM

IC50 [14]: 10.9 µM
Compound: CC(C)=CCC/C(C)=C/CC/C(C)=C/CN1C(=O)c2cccc(O)c2Nc2c(O)cc(O)cc21 [DIAZEPINOMICIN]
inhibition in vivo at 30 mg/kg [7]: 66%
IC50 [8]: 5.3 µM
inhibition in vivo at 30 mg/kg [9]: 60%
IC50 [10]: 8.9 µM
IC50 [11]: 4.3 µM
IC50 [12]: 8.3 µM
inhibition in vivo at 30 mg/kg [13]: 36%

Compound: C/C=C1/CN2C3C[C@H]1[C@H](CO)[C@@H]2Cc1c3n(C)c2ccccc12
GI50 [15]: 9.5 µM

Compound: CC(C)[C@@]12NC(=O)[C@@H](Cc3c1[nH]c1ccccc31)n1c2nc2ccccc2c1=O
IC50 [16]: 44 µM
IC50 [17]: 50 µM

Compound: Cc1ncc(CNC(=O)N(CCCl)N=O)c(N)n1.Cl [NIMUSTINE HYDROCHLORIDE]
Activity [18]: 143%
IC50 [19]: 3.1 µg/mL
IC50 [20]: 8 µg/mL
IC50 [21]: 2.5 µg/mL
IC50 [22]: 120 µg/mL
IC50 [23]: 4.1 µg/mL
IC50 [24]: 8.3 µg/mL

IC50 [27]: 1.7 µM
Compound: CC[C@]12C=CC(CC(C)=O)N3CC[C@]4(C(=C(C(=O)OC)C1)Nc1ccccc14)[C@@H]32 (stereo partly drawn)
IC50 [25]: 1.3 µM
IC50 [26]: 4.3 µM

IC50 [28]: 48 µM
IC50 [30]: 77 µM
Compound: O=C(/C=C/c1ccc(O)cc1)NCCc1c[nH]c2ccc(O)cc12 [N-P-COUMAROYL SEROTONIN]
IC50 [29]: 68 µM
IC50 [31]: 62 µM
IC50 [32]: 81 µM

Compound: Clc1ccccc1C(c1ccccc1)(c1ccccc1)n1ccnc1 [CLOTRIMAZOLE]
Activity [33]: 70%

Compound: O=C1NC(=O)c2c1c1[nH]cnc1c1[nH]c3ccccc3c21 [GRANULATIMIDE]
IC50 [34]: 6 µM

Compound: COc1cc2c(cc1OC)[C@@]13CCN4CC5=CCO[C@H]6CC(=O)N2[C@H]1[C@H]6[C@H]5C[C@H]43 [BRUCINE]
IC50 [35]: 614 µM
LD50 at 480 h [36]: 13.2 mg/kg
IC50 [37]: 536 µM
IC50 [38]: 527 µM
IC50 [39]: 604 µM

Compound: COc1cc2c3cc1Oc1c(OC)c(OC)cc4c1[C@@H](Cc1ccc(O)c(c1)Oc1ccc(cc1)C[C@@H]3N(C)CC2)N(C)CC4 [BERBAMINE]
Activity [40]: 5.28 mg

IC50 [42]: 590 µM
Compound: COc1cc(/C=C/C(=O)NCCc2c[nH]c3ccc(O)cc23)ccc1O [N-FERULOYL SEROTONIN]
IC50 [41]: 193 µM
IC50 [43]: 730 µM
IC50 [44]: 238 µM

Compound: Nc1ncnc2c1ncn2[C@@H]1O[C@H](CO)C[C@H]1O [CORDYCEPIN]
IC50 [45]: 175 µM
Activity [46]: 35%
Activity [47]: 76%
IC50 [48]: 250 µM
Activity [49]: 29.8%
Activity [50]: 29.8%

IC50 [51]: 7.9 µM
IC50 [52]: 13.4 µM
Compound: C[C@@H](O)c1cc2ccncc2c(=O)[nH]1

Compound: CC(C)(O)[C@H]1O[C@H]2CC[C@@]3(C)[C@@](O)(CC[C@H]4Cc5c([nH]c6ccccc56)[C@@]43C)C2=CC1=O [PAXILLINE]
IC50 [53]: ~0.013 µM
